In patent US5637619A, “Antitumor 2-aminocarbonyl-1, 2-bis(methylsulfonyl)-1-(substituted)hydrazines” (Yale University, priority 1995, dated 1997):

How the values were obtained:
[1] = tested on: L1210 leukemia; assay: L1210 leukemia survival time in mice (ip implanted); assay type: in vivo, mice (CD2F1); conditions: for %T/C (average survival time treated/control × 100): cures not included
Method: (§1) Leukemia L1210 cells were obtained from the Frederick Cancer Research Facility, Division of Cancer Treatment Tumor Repository of the National Cancer Institute, and were maintained by serial passage in tissue culture. Every 8 weeks, tumor cells were injected intraperitoneally into five donor CD2 F1 mice 8- to 10- weeks of age and were allowed to grow for 7 days. The peritoneal fluid was withdrawn and the suspension was centrifuged for 5 min at 1600 g. The supernatant was decanted and 10^5 cells/mL were seeded into 10 mL of RPMI 1640 medium supplemented with 10% fetal bovine serum and 1% L-glutamine, and once again maintained in culture. To assay for antineoplastic activity, 0.1 mL of the cell suspension containing 10^5 L1210 leukemia cells was injected ip into each recipient mouse. Test compounds were administered over a wide range of dosage levels, beginning 24 h after tumor implantation, and continued once daily for 6 consecutive days. All drugs were administered ip as a solution in 100% dimethylsulfoxide (DMSO), in a volume not exceeding 0.025 mL. […] Mice were weighed during the course of the experiments, and the percentage change in body weight from onset to termination of therapy was used as an indication of drug toxicity. Determination of the sensitivity of neoplasms to these agents was based upon the prolongation of survival time afforded by the drug treatments.
(§2) ^a Administered ip once daily for six consecutive days, beginning 24 hours after tumor implantation, with 5-10 mice being used per group. ^b Average percent change in body weight from onset to termination of therapy. ^c % T/C=average survival time of treated/control mice×100; cures (>60-day survivors) are listed separately and are not included in this calculation.

[2] = Body weight change / toxicity in L1210-bearing mice; assay type: in vivo, mice (CD2F1); conditions: L1210-bearing mice
Method: as §1, §2

| Compound | %T/C (average survival time treated/control × 100) ([1]; 5 mg/kg ip once daily × 6) | %T/C (average survival time treated/control × 100) ([1]; 10 mg/kg ip once daily × 6) | %T/C (average survival time treated/control × 100) ([1]; 15 mg/kg ip once daily × 6) | %T/C (average survival time treated/control × 100) ([1]; 20 mg/kg ip once daily × 6) | %T/C (average survival time treated/control × 100) ([1]; 25 mg/kg ip once daily × 6) | % 60 Day Survivors (cures) ([1]; 50 mg/kg ip once daily × 6) | %T/C (average survival time treated/control × 100) ([1]; 50 mg/kg ip once daily × 6) | Av. Wt. Change % ([2]; 5 mg/kg ip once daily × 6) | Av. Wt. Change % ([2]; 10 mg/kg ip once daily × 6) | Av. Wt. Change % ([2]; 15 mg/kg ip once daily × 6) | Av. Wt. Change % ([2]; 20 mg/kg ip once daily × 6) | Av. Wt. Change % ([2]; 25 mg/kg ip once daily × 6) | Av. Wt. Change % ([2]; 50 mg/kg ip once daily × 6) | Av. Wt. Change % ([2]; 100 mg/kg ip once daily × 6) | % 60 Day Survivors (cures) ([1]; 10 mg/kg ip once daily × 6) | % 60 Day Survivors (cures) ([1]; 15 mg/kg ip once daily × 6) | % 60 Day Survivors (cures) ([1]; 25 mg/kg ip once daily × 6) | % 60 Day Survivors (cures) ([1]; 75 mg/kg ip once daily × 6) | %T/C (average survival time treated/control × 100) ([1]; 75 mg/kg ip once daily × 6) | %T/C (average survival time treated/control × 100) ([1]; 100 mg/kg ip once daily × 6) | also measured |
| --- | --- | --- | --- | --- | --- | --- | --- | --- | --- | --- | --- | --- | --- | --- | --- | --- | --- | --- | --- | --- | --- |
| CCOC(=O)C(Cc1ccccc1)NC(=O)N(N(CCCl)S(C)(=O)=O)S(C)(=O)=O (centres unmarked) [Compound IX, 1,2-Bis(methylsulfonyl)-1-(2-chloroethyl)-2-(1-ethoxycarbonyl-2-phenylethyl)aminocarbonylhydrazine] | 147% | 165% | 160% | 174% | 177% | 60% | 225% | -2.5% | -0.5% | -1.9% | -1.9% | -0.9% | -2.0% | -2.0% |  |  |  |  |  |  | % 60 Day Survivors (cures) ([1]; 100 mg/kg ip once daily × 6): 100%; % 60 Day Survivors (cures) ([1]; 150 mg/kg ip once daily × 6): 20%; %T/C (average survival time treated/control × 100) ([1]; 150 mg/kg ip once daily × 6): 169%; Av. Wt. Change % ([2]; 150 mg/kg ip once daily × 6): -5.0% |
| C=CCNC(=O)N(N(CCCl)S(C)(=O)=O)S(C)(=O)=O [Compound V, 2-Allylaminocarbonyl-1,2-bis(methylsulfonyl)-1-(2-chloroethyl)hydrazine] | 184% | 394% |  |  |  |  |  | -1.6% | -2.1% | -2.9% |  |  |  |  | 40% | 100% |  |  |  |  | % 60 Day Survivors (cures) ([1]; 5 mg/kg ip once daily × 6): 20%; antileukemic activity / therapeutic potential (in words) ([1]; qualitative, L1210 leukemia in mice): highly efficacious against this tumor |
| CS(=O)(=O)N(CCCl)N(C(=O)NCCCCl)S(C)(=O)=O [Compound VI, 1,2-Bis(methylsulfonyl)-1-(2-chloroethyl)-2-(3-chloropropyl)aminocarbonylhydrazine] | 111% | 187% | 192% |  |  |  |  | -2.8% | -5.6% | -8.8% |  |  |  |  |  | 20% |  |  |  |  | cure rate (in words) ([1]; highest dosage level examined (15 mg/kg × 6)): partial cure rate of tumor-bearing mice |
| CCOC(=O)CNC(=O)N(N(CCCl)S(C)(=O)=O)S(C)(=O)=O [Compound VII, 1,2-Bis(methylsulfonyl)-1-(2-chloroethyl)-2-(ethoxycarbonylmethyl)aminocarbonylhydrazine] | 151% | 202% | 202% | 191% |  | 80% | 138% | -1.5% | -1.4% | -0.5% | -3.7% | -0.5% | -2.5% | -4.0% | 20% |  | 100% | 60% | 119% | 115% | % 60 Day Survivors (cures) ([1]; 20 mg/kg ip once daily × 6): 20%; Av. Wt. Change % ([2]; 75 mg/kg ip once daily × 6): -1.5% |
| CCOC(=O)C(C)NC(=O)N(N(CCCl)S(C)(=O)=O)S(C)(=O)=O (centres unmarked) [Compound VIII, 1,2-Bis(methylsulfonyl)-1-(2-chloroethyl)-2-(1-ethoxycarbonylethyl)aminocarbonylhydrazine] | 170% | 178% | 185% | 227% | 239% | 100% |  | -2.0% | -1.4% | -0.5% | -1.5% | -2.5% | -3.3% | -2.5% | 20% |  | 60% | 80% | 125% | 118% | Av. Wt. Change % ([2]; 75 mg/kg ip once daily × 6): -2.5% |
